Biological target: Beta-2 adrenergic receptor (Homo sapiens) (UniProt P07550)
Experiment: ADRB2 activation measured by internalization – cell-based, FAP fluorogen, flow cytometry, powder set 5, dose response (AID 651912)
Conditions: AM2.2-beta2AR cells, 90 min

Chain of Beta-2 adrenergic receptor (Homo sapiens) (P07550 whole entry, looked up): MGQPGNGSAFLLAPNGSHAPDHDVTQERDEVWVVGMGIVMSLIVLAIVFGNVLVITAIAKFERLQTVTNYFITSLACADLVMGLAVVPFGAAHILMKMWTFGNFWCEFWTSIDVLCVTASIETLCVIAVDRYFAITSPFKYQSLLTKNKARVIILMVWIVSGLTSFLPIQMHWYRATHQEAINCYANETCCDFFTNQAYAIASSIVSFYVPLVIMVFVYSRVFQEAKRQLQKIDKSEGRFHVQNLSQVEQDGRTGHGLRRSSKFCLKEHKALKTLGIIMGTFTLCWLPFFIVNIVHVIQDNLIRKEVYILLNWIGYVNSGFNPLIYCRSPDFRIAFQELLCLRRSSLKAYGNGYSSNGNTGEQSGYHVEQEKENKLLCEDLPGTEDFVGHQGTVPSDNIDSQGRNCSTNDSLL

Row | SMILES | EC50
1 | CC1CCCCN1S(=O)(=O)c1ccc(NC(=O)c2cccnc2)cc1 (configuration not stated) | 134 nM
2 | O=C(C1CCCN1S(=O)(=O)c1ccc(Cl)cc1)N1CCN(c2ccccn2)CC1 (configuration not stated) | 219 nM
3 | CCC(=O)Nc1ccc(S(=O)(=O)N2CCCCC2CC)cc1 (configuration not stated) | 4.8 nM
4 | Cc1cccc(C(=O)Nc2ccc(S(=O)(=O)N3CCCCC3C)cc2)c1 (configuration not stated) | 4030 nM
5 | CC(=O)Nc1ccc(S(=O)(=O)N2CCCCC2C)cc1 (configuration not stated) | 80.2 nM
6 | CCC1CCCCN1S(=O)(=O)c1ccc(NC(C)=O)cc1 (configuration not stated) | 132 nM
7 | CN(CC(=O)N1CCN(c2ccc(F)cc2)CC1)S(=O)(=O)c1ccc(Br)cc1 | 336 nM

— PubChem BioAssay AID651912 (NMMLSC, 2012)
